Patent US20060281174A1, “Methods for generating insulin-producing cells” (priority 2004, published 2006)

Tested on: Human MSCs and Pancl cells
Assay: Co-culture of human MSCs and Pancl cells in induction media with added factors to potentiate differentiation
Type: cell-based
Conditions: MSC/Pancl co-culture, induction media 1% ITS, 2% BSA in DMEM; 100 μM, 10 days
Procedure: Design: Human MSCs from Clontech (Palo Alto, CA), passage 4-6, and Pancl cells from ATCC, passage 2-6, were used in the experiment. 5 ×10ˆ5 cells for both cells were seeded in 10 cm tissue culture treated dishes in a 1:1 combination media of DMEM containing 10% FBS and a MSC growth media purchased from CAMBREX (Walkersville, MD). After 2-3 days of culture, the media was replaced by the induction media containing1% ITS, 2% BSA in DMEM. The proteasome inhibitor, Lactocystin, was added into the media at the final concentration of 100 μM to potentiate the differentiation for 10 days.
Design: Human MSCs from Clontech, passage 4-6, and Pancl cells from ATCC, passage 2-6, were used in the experiment. 5 ×10ˆ5 cells for both cells were seeded in 10 cm tissue culture treated dishes in a 1:1 media of DMEM containing 10% FBS, and a MSC growth media purchased from CAMBREX. After 2-3 days of culture, the media was replaced by the induction media containing 1% ITS, 2% BSA in DMEM for 10 days. A growth factor cocktail containing bFGF, EGF, Exendin-4 and Nicotinamide, was added into the media to potentiate the differentiation.
Design: Human MSCs from Clontech, passage 4-6, and Pancl cells from ATCC, passage 2-6, were used in the experiment. 5 ×10ˆ5 cells for both cells were seeded in 10 cm tissue culture treated dishes in a 1:1 media of DMEM with 10% FBS, and MSC growth media purchased from CAMBREX. […]

CC(=O)N[C@@H](CSC(=O)[C@]1([C@@H](O)C(C)C)NC(=O)[C@H](C)[C@@H]1O)C(=O)O [Lactocystin]
expression of insulin: No formation of clusters or expression of insulin | formation of clusters: No formation of clusters
